The target in this test is Axl (Homo sapiens (Human), UniProt P30530). The experiment in a line: Phospho-Akt in-cell Western assay (Axl-antibody cross-linking stimulation). In kind it is cell-based. The conditions noted are these: inhibition of Axl activity. As to the method:
The working solution: dilute the stock 1:20 with PBS immediately before use. • 10% SDS: working solution: 5% SDS (sodium dodecylsulfate), diluted in PBS Methods: Day 1:
A 96 well TC (tissue culture treated) plate was coated with 10 μg/mL poly-L-Lysine at 37° C. for 30 min, washed twice with PBS, and air-dried for 5 minutes before cells were added. Hela cells were seeded at 10,000 cells/well and the cells were starved in 100 μL starvation medium containing Axl/Fc for 24 hrs.
The cells were pre-treated with test compounds by adding 100 μL of 2× test compound to the starvation medium on the cells. The cells were incubated at 37° C. for 1 hr before stimulation.
The resulting mix was warmed to 37° C. 50 μL of 5× Axl 1st/2nd of antibody cluster was added to the cells and the cells were incubated at 37° C. for 5 min.
After 5 minutes stimulation, the plate was flicked to remove medium and the plate was tapped onto paper towels. Formaldehyde (4.0% in PBS, 100 μL) was added to fix the cells and the cells were incubated at ambient temperature for 20 min without shaking.
The cells were washed with a plate washer buffer to remove the formaldehyde solution. The plate was flicked to removed excess wash buffer and tapped onto paper towels. Quenching buffer (100 μL) was added to each well and the cells were incubated at ambient temperature for 20 minutes without shaking.
The cells were washed with a plate washer buffer to remove the quenching buffer. Blocking buffer (100 μL) was added and the cells were incubated at ambient temperature for at least an hour with gentle shaking.
The cells were washed with a plate washer buffer and diluted primary antibody (50 μL) was added to each well (blocking buffer was added to the negative control wells instead). The plates were incubated overnight at 4° C. with gentle shaking.
The wash buffer was removed, diluted secondary antibody (100 μL) was added, and the cells were incubated at ambient temperature for 1 hour with gentle shaking. During the incubation, the chemiluminescent reagent was brought to ambient temperature.
The secondary antibody was removed by washing the cells 1× with wash buffer, 1× with PBS by plate washer. The PBS was removed from the plate and the chemiluminescent reagent (80 μL: 40 μL A and 40 μL B) was added to each well at ambient temperature.
The resulting chemiluminescence was read with a Luminomitor within 10 minutes to minimize changes in signal intensity. […] The plate was tapped onto paper towels to remove excess liquid from wells and air-dried at ambient temperature for 5 minutes.
Crystal Violet working solution (60 μL) was added to each well and the cells were incubated at ambient temperature for 30 min. The crystal violet solution was removed, and the wells were rinsed with PBS, then washed 3× with PBS (200 μL) for 5 minutes each.
5% SDS solution (70 μL) was added to each well and the cells were incubated on a shaker for 30 min at ambient temperature.
This relative cell number was then used to normalize each luminescence reading. […]

[1] abbreviates: phospho-Akt in-cell Western assay.
The mark [2] stands for this setting: Hela cells, phospho-Akt readout, Table 1, formula (Ia1).
Setting [3] is: Hela cells, phospho-Akt readout, Table 5, formula (Ia3).

This passage reports IC50 results from patent US10166216B2 (Rigel Pharmaceuticals, Inc., priority 2006, dated 2019).

A value given as a limit tells only on which side of the number the result lay.

Broadly, the IC50 is the concentration needed to halve the response being measured. A lower IC50 goes with higher potency.

Axl, sequence (P30530 26-894): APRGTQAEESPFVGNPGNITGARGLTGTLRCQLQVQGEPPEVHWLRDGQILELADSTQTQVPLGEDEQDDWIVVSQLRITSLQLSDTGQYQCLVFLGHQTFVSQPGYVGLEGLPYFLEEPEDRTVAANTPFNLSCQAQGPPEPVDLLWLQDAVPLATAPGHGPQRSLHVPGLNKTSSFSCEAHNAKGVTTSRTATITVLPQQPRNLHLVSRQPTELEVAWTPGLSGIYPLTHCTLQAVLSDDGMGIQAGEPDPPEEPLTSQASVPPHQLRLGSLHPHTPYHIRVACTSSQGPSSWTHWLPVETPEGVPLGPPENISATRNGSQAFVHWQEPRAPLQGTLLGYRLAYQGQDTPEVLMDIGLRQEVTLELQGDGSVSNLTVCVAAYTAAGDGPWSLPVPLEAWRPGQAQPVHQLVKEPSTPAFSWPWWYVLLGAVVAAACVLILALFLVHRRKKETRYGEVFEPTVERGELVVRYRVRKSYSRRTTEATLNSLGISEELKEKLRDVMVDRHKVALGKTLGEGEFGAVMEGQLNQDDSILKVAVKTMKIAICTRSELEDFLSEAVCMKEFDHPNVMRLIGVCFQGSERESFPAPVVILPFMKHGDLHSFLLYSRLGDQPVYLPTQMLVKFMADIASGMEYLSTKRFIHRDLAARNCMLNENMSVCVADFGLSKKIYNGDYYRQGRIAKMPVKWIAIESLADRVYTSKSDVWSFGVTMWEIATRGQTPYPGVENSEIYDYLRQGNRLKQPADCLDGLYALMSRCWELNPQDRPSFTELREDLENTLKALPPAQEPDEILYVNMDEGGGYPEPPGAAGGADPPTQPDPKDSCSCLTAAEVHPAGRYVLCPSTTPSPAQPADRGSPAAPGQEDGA

On to `Nc1nc(Nc2ccc(N3CCN(C4CCCC4)CC3)c(F)c2)n(-c2nc3ccccc3c3ccccc23)n1` [Compound 205, 1-(phenanthridin-6-yl)-N^5-(3-fluoro-4-(4-cyclopentylpiperazin-1-yl)phenyl)-1H-1,2,4-triazole-3,5-diamine], for which the IC50 (Hela cells, phospho-Akt readout, Table 4, formula (Ib2)) is below 1000 nM.
As for `Cc1csc2c(-n3nc(Nc4ccc(N5CCN([C@H]6C[C@@H]7CC[C@H]6C7)[C@H](C)C5)c(F)c4)nc3N)ncnc12` [Compound 250, 1-(7-methylthieno[3,2-d]pyrimidin-4-yl)-N^3-(3-fluoro-4-(3-(R)-methyl-4-((1S,2S,4R)-bicyclo[2.2.1]heptan-2-yl)piperazin-1-yl)phenyl)-1H-1,2,4-triazole-3,5-diamine], under setting [1], the IC50 is below 1000 nM.
Under setting [2], `Nc1nc(Nc2ccc(OCCN3CCCC3)cc2)nn1-c1ccc(Br)cn1` [Compound 32, 1-(5-bromopyridin-2-yl)-N^3-(4-(2-(pyrrolidin-1-yl)ethoxy)phenyl)-1H-1,2,4-triazole-3,5-diamine] had an IC50 above 20000 nM.
As for `Cc1cc(Nc2nc(N)n(-c3nc4ccccc4c4ccccc34)n2)ccc1N1CCC(N2CCCC2)CC1` [Compound 214, 1-(phenanthridin-6-yl)-N^3-(3-methyl-4-(4-pyrrolidin-1-ylpiperidin-1-yl)phenyl)-1H-1,2,4-triazole-3,5-diamine], the IC50 under setting [3] is below 1000 nM.
Under setting [1], `Cc1csc2c(-n3nc(Nc4ccc(N5CCN(C6CC7CCC6C7)CC5)cc4)nc3N)nc(-c3cccc(C#N)c3)nc12` (stereo not drawn) [Compound 234, 1-(7-methyl-2-(3-cyanophenyl)thieno[3,2-d]pyrimidin-4-yl)-N^3-(4-(4-(bicyclo[2.2.1]heptan-2-yl)piperazin-1-yl)phenyl)-1H-1,2,4-triazole-3,5-diamine] returned an IC50 below 1000 nM.
On the same count and under the same terms, the value for `Cc1csc2c(-n3nc(Nc4ccc(N5CCN([C@H]6C[C@@H]7CC[C@H]6C7)CC5)c(F)c4)nc3N)ncnc12` [Compound 201, 1-(7-methylthieno[3,2-d]pyrimidin-4-yl)-N^3-(3-fluoro-4-(4-((1S,2S,4R)-bicyclo[2.2.1]heptan-2-yl)-piperazin-1-yl)phenyl)-1H-1,2,4-triazole-3,5-diamine] was below 1000 nM.
Under setting [2], `CN(C)c1cccc(-n2nc(Nc3ccc(OCCN4CCCCC4)cc3)nc2N)n1` [Compound 36, 1-(6-(dimethylamino)pyridin-2-yl)-N^3-(4-(2-(piperidin-1-yl)ethoxy)phenyl)-1H-1,2,4-triazole-3,5-diamine] came in with an IC50 of 10000 to 20000 nM.
Turning to `Cc1nnc(-n2nc(Nc3ccc(N4CCN([C@H]5C[C@@H]6CC[C@H]5C6)CC4)c(F)c3)nc2N)c2sccc12` [Compound 226, 1-(4-methylthieno[3,2-d]pyridazin-7-yl)-N^3-(3-fluoro-4-(4-((1S,2S,4R)-bicyclo[2.2.1]heptan-2-yl)piperazin-1-yl)phenyl)-1H-1,2,4-triazole-3,5-diamine], the IC50 under setting [1] was below 1000 nM.
For `Nc1nc(Nc2ccc(N3CCC(N4CCCC4)CC3)c(F)c2)nn1-c1cc(-c2ccccc2)ccn1` [Compound 259, 1-(4-phenylpyridin-2-yl)-N^3-(3-fluoro-4-(4-(pyrrolidin-1-yl)piperidin-1-yl)phenyl)-1H-1,2,4-triazole-3,5-diamine], the IC50 under setting [3] is below 1000 nM.
Consider `COc1cc2ncnc(-n3nc(Nc4ccc5c(c4)CCC(N(C)C4CC6CCC4C6)CC5)nc3N)c2cc1OC` (stereo not drawn) [Compound 224, 1-(6,7-dimethoxy-quinazolin-4-yl)-N^3-(7-(N-methyl-N-bicyclo[2.2.1]heptan-2-yl)amino-6,7,8,9-tetrahydro-5H-benzo[7]annulene-2-yl)-1H-1,2,4-triazole-3,5-diamine], for which, where the note is “Hela cells, phospho-Akt readout, Table 7, formula (Ia4)”, the IC50 was below 1000 nM.
`Cc1nnc(-n2nc(Nc3ccc(N4CCN([C@H]5CC6CCC5C6)CC4)c(Cl)c3)nc2N)c2sccc12` (stereo partly drawn) [Compound 231, 1-(4-methylthieno[3,2-d]pyridazin-7-yl)-N^3-(3-chloro-4-(4-((2)S-bicyclo[2.2.1]heptan-2-yl)piperazin-1-yl)phenyl)-1H-1,2,4-triazole-3,5-diamine]: under setting [1], the concentration for half-maximal inhibition (IC50) was below 1000 nM.
Take `Nc1nc(Nc2ccc(OCCN3CCCC3)cc2)nn1-c1cnc2ccccc2n1` [Compound 9, N^3-(4-(2-(pyrrolidin-1-yl)ethoxy)phenyl)-1-(quinoxalin-2-yl)-1H-1,2,4-triazole-3,5-diamine]: the IC50 under setting [2] was below 1000 nM.
Consider `Cc1csc2c(-n3nc(Nc4ccc(N5CCN(C6CC7CCC6C7)[C@@H](C)C5)c(F)c4)nc3N)ncnc12` (stereo partly drawn) [Compound 249, 1-(7-methylthieno[3,2-d]pyrimidin-4-yl)-N^3-(3-fluoro-4-(3-(S)-methyl-4-(bicyclo[2.2.1]heptan-2-yl)piperazin-1-yl)phenyl)-1H-1,2,4-triazole-3,5-diamine], for which the IC50 under setting [1] was below 1000 nM.
Turning to `CC1CCCN1CCOc1ccc(Nc2nc(N)n(-c3ccccc3F)n2)cc1` (stereo not drawn) [Compound 27, 1-(2-fluorophenyl)-N^3-(4-(2-(2-methylpyrrolidin-1-yl)ethoxy)phenyl)-1H-1,2,4-triazole-3,5-diamine], the IC50 under setting [2] is above 20000 nM.
Take `Cc1csc2c(-n3nc(Nc4ccc(N5CCN([C@H]6CC7CCC6C7)CC5)cc4)nc3N)nc(/C=C/CN3CCOCC3)nc12` (stereo partly drawn) [Compound 241, 1-((E)-7-methyl-2-(3-(morpholin-4-yl)prop-1-enyl)thieno[3,2-d]pyrimidin-4-yl)-N^3-(4-(4-((2S)-bicyclo[2.2.1]heptan-2-yl)piperazin-1-yl)phenyl)-1H-1,2,4-triazole-3,5-diamine]: under setting [1], the IC50 was in the range of 1000 to 10000 nM.
Still for that read-out and setting: the value for `Cc1cc(Nc2nc(N)n(-c3ncnc4c(C)csc34)n2)ccc1N1CCN([C@H]2C[C@@H]3CC[C@H]2C3)[C@H](C)C1` [Compound 254, 1-(7-methylthieno[3,2-d]pyrimidin-4-yl)-N^3-(3-methyl-4-(3-(R)-methyl-4-((1S,2S,4R)-bicyclo[2.2.1]heptan-2-yl)piperazin-1-yl)phenyl)-1H-1,2,4-triazole-3,5-diamine] was below 1000 nM.
Consider `CNC(=O)c1ccc(Nc2nc(NC)n(-c3ccccc3)n2)cc1` [Compound 246, 1-phenyl-N^3-(4-(methylaminocarbonyl)-phenyl)-N^5-methyl-1H-1,2,4-triazole-3,5-diamine], for which, under setting [3], the IC50 was above 20000 nM.
In turn, `CN1CCN(c2ccc(Nc3nc(N)n(-c4nccc5ccccc45)n3)cc2)CC1` [Compound 84, 1-(isoquinolin-1-yl)-N^3-(4-(4-methylpiperazin-1-yl)phenyl)-1H-1,2,4-triazole-3,5-diamine] had an IC50 under setting [1] below 1000 nM.
Regarding `Nc1nc(Nc2ccc(OCCN3CCCC3)cc2)nn1-c1ccc(Cl)cn1` [Compound 17, 1-(5-chloropyridin-2-yl)-N^3-(4-(2-(pyrrolidin-1-yl)ethoxy)phenyl)-1H-1,2,4-triazole-3,5-diamine], the IC50 under setting [2] was in the range of 1000 to 10000 nM.
`Cc1csc2c(-n3nc(Nc4ccc(N5CCC(N6CC7CCC6C7)CC5)c(F)c4)nc3N)ncnc12` (stereo not drawn) [Compound 260, 1-(7-methylthieno[3,2-d]pyrimidin-4-yl)-N^3-(3-fluoro-4-(4-(2-azabicyclo[2.2.1]heptan-2-yl)piperidin-1-yl)phenyl)-1H-1,2,4-triazole-3,5-diamine] returned an IC50 under setting [3] below 1000 nM.
In the case of `Nc1nc(Nc2ccc(OCCN3CCCC3)cc2)nn1-c1nc2ccccc2s1` [Compound 11, 1-(benzo[d]thiazol-2-yl)-N^3-(4-(2-(pyrrolidin-1-yl)ethoxy)phenyl)-1H-1,2,4-triazole-3,5-diamine], the IC50 under setting [2] is above 20000 nM.
Same read-out and setting: for `Nc1nc(Nc2ccc(OCCN3CCCC3)c(Cl)c2)nn1-c1ccccn1` [Compound 4, N^3-(3-chloro-4-(2-(pyrrolidin-1-yl)ethoxy)phenyl)-1-(pyridin-2-yl)-1H-1,2,4-triazole-3,5-diamine] the value was below 1000 nM.
Under setting [3], `CN1CCC(c2ccc(Nc3nc(N)n(-c4nc5ccccc5c5ccccc45)n3)cc2)CC1` [Compound 213, 1-(phenanthridin-6-yl)-N^3-(4-(1-methylpiperidin-4-yl)phenyl)-1H-1,2,4-triazole-3,5-diamine] displayed an IC50 below 1000 nM.
`Nc1nc(Nc2ccc(N3CCN(C4CC5CCC4C5)CC3)cc2)nn1-c1nc(C(F)(F)F)nc2ccccc12` (stereo not drawn) [Compound 136, N^3-(4-(4-(bicyclo[2.2.1]heptan-2-yl)piperazin-1-yl)phenyl)-1-(2-(trifluoromethyl)quinazolin-4-yl)-1H-1,2,4-triazole-3,5-diamine] returned an IC50 under setting [1] of 1000 to 10000 nM.
